# Assay results from publication PMC9090415, “Discovery of small molecule inhibitors of Plasmodium falciparum apicoplast DNA polymerase” (Journal of Enzyme Inhibition and Medicinal Chemistry, 2022).
# Biological target: T1, bacteriophage T4 DNA polymerase (Enterobacteria phage T4, UniProt P04415)
# T1 construct: made in house
# T1 sequence (P04415 1-898): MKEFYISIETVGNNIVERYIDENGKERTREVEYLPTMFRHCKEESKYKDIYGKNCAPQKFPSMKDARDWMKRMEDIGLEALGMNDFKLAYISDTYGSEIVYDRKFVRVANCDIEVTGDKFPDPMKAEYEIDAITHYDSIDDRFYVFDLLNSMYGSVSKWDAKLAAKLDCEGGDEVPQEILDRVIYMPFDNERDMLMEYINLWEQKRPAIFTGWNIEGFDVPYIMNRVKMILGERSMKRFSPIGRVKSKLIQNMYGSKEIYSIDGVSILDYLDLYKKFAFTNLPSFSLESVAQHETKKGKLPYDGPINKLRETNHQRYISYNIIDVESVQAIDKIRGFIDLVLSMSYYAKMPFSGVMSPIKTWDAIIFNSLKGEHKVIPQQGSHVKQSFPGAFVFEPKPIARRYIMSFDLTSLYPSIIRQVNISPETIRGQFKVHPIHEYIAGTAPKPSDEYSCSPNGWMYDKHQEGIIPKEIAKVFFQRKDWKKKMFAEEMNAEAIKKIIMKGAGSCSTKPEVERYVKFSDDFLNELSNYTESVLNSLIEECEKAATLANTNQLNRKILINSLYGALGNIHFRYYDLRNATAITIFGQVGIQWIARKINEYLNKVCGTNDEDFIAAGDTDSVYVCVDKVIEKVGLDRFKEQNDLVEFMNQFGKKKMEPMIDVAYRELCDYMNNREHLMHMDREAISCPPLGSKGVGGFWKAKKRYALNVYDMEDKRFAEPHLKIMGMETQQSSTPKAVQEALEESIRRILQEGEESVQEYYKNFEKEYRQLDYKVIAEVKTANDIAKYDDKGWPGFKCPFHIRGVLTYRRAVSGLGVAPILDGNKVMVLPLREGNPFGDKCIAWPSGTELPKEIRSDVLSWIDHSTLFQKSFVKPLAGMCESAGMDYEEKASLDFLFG
# Assay: Counter-screen against bacteriophage T4 DNA polymerase
# Format: biochemical
# Conditions: for % inhibition T4 10' 2.5 / % inhibition T4 10' 5 / % inhibition T4 10' 10 / % inhibition T4 10' 20 / % inhibition T4 10' 40 / % inhibition T4 10' 80: read at 10'
# How it was run: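 Purified T4 DNA polymerase, a B-family enzyme, served as the counter-screen enzyme. Compounds were tested in dose-response format and IC50 values were derived.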
smiles,measurement,setting,value
"Cc1ccc(C)n1-c1ccc(C(=O)NNC(=O)c2ccc3nccnc3c2)cc1 [Molecule 53, O=C(c1ccc(cc1)n1c(C)ccc1C)NNC(=O)c1ccc2c(c1)nccn2]",% inhibition T4 10',"DRC-2, concentration 2.5",15%
same,% inhibition T4 10',"DRC-2, concentration 5",24%
same,% inhibition T4 10',"DRC-2, concentration 10",29%
same,% inhibition T4 10',"DRC-2, concentration 20",31%
same,% inhibition T4 10',"DRC-2, concentration 40",29%
same,% inhibition T4 10',"DRC-2, concentration 80",38%
same,% inhibition T4 40',"DRC-2, concentration 2.5",15%
same,% inhibition T4 40',"DRC-2, concentration 5",24%
same,% inhibition T4 40',"DRC-2, concentration 10",29%
same,% inhibition T4 40',"DRC-2, concentration 20",31%
same,% inhibition T4 40',"DRC-2, concentration 40",29%
same,% inhibition T4 40',"DRC-2, concentration 80",38%
same,% inhibition T4 90',"DRC-2, concentration 5",22%
same,% inhibition T4 90',"DRC-2, concentration 20",29%
same,% inhibition T4 90',"DRC-2, concentration 40",29%
same,% inhibition T4 180',"DRC-2, concentration 10",22%
same,% inhibition T4 180',"DRC-2, concentration 20",24%
"O=C(c1c[nH]c2ncccc12)N1CCCC1 [Molecule 63, O=C(c1c[nH]c2c1cccn2)N1CCCC1]",% inhibition T4 10',"DRC-2, concentration 20",25%
same,% inhibition T4 10',"DRC-2, concentration 40",31%
same,% inhibition T4 40',"DRC-2, concentration 20",25%
same,% inhibition T4 90',"DRC-2, concentration 40",31%
"Cc1ccc(NC(=O)C2CCN(C(=O)c3cc4ccsc4[nH]3)CC2)c(Br)c1 [Molecule 14, O=C(C1CCN(CC1)C(=O)c1cc2c([nH]1)scc2)Nc1ccc(cc1Br)C]",% inhibition T4 10',"DRC-2, concentration 20",5%
same,% inhibition T4 10',"DRC-2, concentration 40",10%
same,% inhibition T4 10',"DRC-2, concentration 80",10%
same,% inhibition T4 40',"DRC-2, concentration 20",5%
same,% inhibition T4 40',"DRC-2, concentration 40",8%
same,% inhibition T4 40',"DRC-2, concentration 80",10%
same,% inhibition T4 90',"DRC-2, concentration 40",6%
same,% inhibition T4 90',"DRC-2, concentration 80",8%
"Cc1ccccc1C(=O)N1CCc2c(nc3cc(-c4ccccc4)[nH]n3c2=O)C1 [Molecule 41, Cc1ccccc1C(=O)N1CCc2c(C1)nc1n(c2=O)[nH]c(c1)c1ccccc1]",% inhibition T4 10',"DRC-2, concentration 2.5",10%
same,% inhibition T4 10',"DRC-2, concentration 5",13%
same,% inhibition T4 10',"DRC-2, concentration 10",5%
same,% inhibition T4 10',"DRC-2, concentration 20",-10%
same,% inhibition T4 10',"DRC-2, concentration 40",-26%
same,% inhibition T4 10',"DRC-2, concentration 80",-46%
same,% inhibition T4 40',"DRC-2, concentration 2.5",10%
same,% inhibition T4 40',"DRC-2, concentration 5",13%
same,% inhibition T4 40',"DRC-2, concentration 10",5%
same,% inhibition T4 40',"DRC-2, concentration 20",-10%
same,% inhibition T4 40',"DRC-2, concentration 40",-26%
same,% inhibition T4 40',"DRC-2, concentration 80",-46%
"O=C(c1ccccc1)N1CCc2c(nc3cc(-c4ccccc4)[nH]n3c2=O)C1 [Molecule 30, O=C(N1CCc2c(C1)nc1n(c2=O)[nH]c(c1)c1ccccc1)c1ccccc1]",% inhibition T4 10' 2.5,"DRC-1, concentration 2.5",-1.603%
same,% inhibition T4 10' 5,"DRC-1, concentration 5",-4.492%
same,% inhibition T4 10' 10,"DRC-1, concentration 10",-6.45%
same,% inhibition T4 10' 20,"DRC-1, concentration 20",0.1503%
same,% inhibition T4 10' 40,"DRC-1, concentration 40",0.9641%
same,% inhibition T4 10' 80,"DRC-1, concentration 80",-0.6394%
same,% inhibition T4 70' 2.5,"DRC-1, read at 70', concentration 2.5",-4.009%
same,% inhibition T4 70' 5,"DRC-1, read at 70', concentration 5",-7.504%
same,% inhibition T4 70' 10,"DRC-1, read at 70', concentration 10",-7.7135%
same,% inhibition T4 70' 20,"DRC-1, read at 70', concentration 20",-3.401%
same,% inhibition T4 70' 40,"DRC-1, read at 70', concentration 40",-0.06602%
same,% inhibition T4 70' 80,"DRC-1, read at 70', concentration 80",-5.584%
same,% inhibition T4 130' 2.5,"DRC-1, read at 130', concentration 2.5",-6.3102%
same,% inhibition T4 130' 5,"DRC-1, read at 130', concentration 5",-10.6574%
same,% inhibition T4 130' 10,"DRC-1, read at 130', concentration 10",-9.449%
same,% inhibition T4 130' 20,"DRC-1, read at 130', concentration 20",-6.067%
same,% inhibition T4 130' 40,"DRC-1, read at 130', concentration 40",-1.0022%
same,% inhibition T4 130' 80,"DRC-1, read at 130', concentration 80",-9.233%
same,% inhibition T4 10' 2.5,"DRC-2, concentration 2.5",1.68%
same,% inhibition T4 10' 5,"DRC-2, concentration 5",-13%
same,% inhibition T4 10' 10,"DRC-2, concentration 10",-11%
same,% inhibition T4 10' 20,"DRC-2, concentration 20",-20%
same,% inhibition T4 10' 40,"DRC-2, concentration 40",-17%
same,% inhibition T4 10' 80,"DRC-2, concentration 80",-22%
same,% inhibition T4 40' 2.5,"DRC-2, read at 40', concentration 2.5",1.68%
same,% inhibition T4 40' 5,"DRC-2, read at 40', concentration 5",-13%
same,% inhibition T4 40' 10,"DRC-2, read at 40', concentration 10",-11%
same,% inhibition T4 40' 20,"DRC-2, read at 40', concentration 20",-20%
same,% inhibition T4 40' 40,"DRC-2, read at 40', concentration 40",-17%
same,% inhibition T4 40' 80,"DRC-2, read at 40', concentration 80",-22%
same,% inhibition T4 90' 2.5,"DRC-2, read at 90', concentration 2.5",1%
same,% inhibition T4 90' 5,"DRC-2, read at 90', concentration 5",-13%
same,% inhibition T4 90' 10,"DRC-2, read at 90', concentration 10",-10%
same,% inhibition T4 90' 20,"DRC-2, read at 90', concentration 20",-17%
same,% inhibition T4 90' 40,"DRC-2, read at 90', concentration 40",-15%
same,% inhibition T4 90' 80,"DRC-2, read at 90', concentration 80",-21%
same,% inhibition T4 180' 2.5,"DRC-2, read at 180', concentration 2.5",-2.79%
same,% inhibition T4 180' 5,"DRC-2, read at 180', concentration 5",-16%
same,% inhibition T4 180' 10,"DRC-2, read at 180', concentration 10",-13%
same,% inhibition T4 180' 20,"DRC-2, read at 180', concentration 20",-19%
same,% inhibition T4 180' 40,"DRC-2, read at 180', concentration 40",-15%
same,% inhibition T4 180' 80,"DRC-2, read at 180', concentration 80",-21%
"Cc1ccc(C(=O)/C=C/C=C/C=C/N(C)C)o1 [Molecule 96, CN(/C=C/C=C/C=C/C(=O)c1ccc(o1)C)C]",% inhibition T4 10',"DRC-2, concentration 10",11%
same,% inhibition T4 90',"DRC-2, concentration 5",11%
"Cc1ccc(NC(=O)Cn2ccc3c(=O)[nH]ccc32)cc1F [Molecule 48, O=C(Cn1ccc2c1cc[nH]c2=O)Nc1ccc(c(c1)F)C]",% inhibition T4 10',"DRC-2, concentration 5",-12%
same,% inhibition T4 40',"DRC-2, concentration 5",-12%
same,% inhibition T4 90',"DRC-2, concentration 10",-15%
same,% inhibition T4 180',"DRC-2, concentration 5",-12%
same,% inhibition T4 180',"DRC-2, concentration 10",-15%
CC1(C)CC(=O)C2=C(C1)OC1=C(C(=O)CC(C)(C)C1)C2c1ccc(O)cc1 [KU0194226],% inhibition T4 10',"DRC-2, concentration 40",18%
same,% inhibition T4 40',"DRC-2, concentration 5",17%
same,% inhibition T4 40',"DRC-2, concentration 10",18%
same,% inhibition T4 40',"DRC-2, concentration 40",12%
same,% inhibition T4 40',"DRC-2, concentration 80",30%
same,% inhibition T4 90',"DRC-2, concentration 10",17%
same,% inhibition T4 90',"DRC-2, concentration 40",12%
same,% inhibition T4 90',"DRC-2, concentration 80",30%
same,% inhibition T4 180',"DRC-2, concentration 2.5",18%
same,% inhibition T4 180',"DRC-2, concentration 5",12%
same,% inhibition T4 180',"DRC-2, concentration 40",12%
same,% inhibition T4 180',"DRC-2, concentration 80",30%
O=c1[nH]c2ccc([N+](=O)[O-])cc2c(-c2ccccc2)c1Sc1nc2ccccc2o1 [KU0067471],% inhibition T4 10',"DRC-2, concentration 10",35%
same,% inhibition T4 10',"DRC-2, concentration 20",35%
same,% inhibition T4 40',"DRC-2, concentration 10",36%
same,% inhibition T4 40',"DRC-2, concentration 40",48%
same,% inhibition T4 40',"DRC-2, concentration 80",47%
same,% inhibition T4 90',"DRC-2, concentration 2.5",11%
same,% inhibition T4 90',"DRC-2, concentration 20",36%
same,% inhibition T4 90',"DRC-2, concentration 40",47%
same,% inhibition T4 90',"DRC-2, concentration 80",48%
same,% inhibition T4 180',"DRC-2, concentration 5",11%
same,% inhibition T4 180',"DRC-2, concentration 80",47%
"O=C(NNC(=O)c1ccc(Cl)cc1)C(=O)NNC(=O)c1ccc(Cl)cc1 [Molecule 25, O=C(C(=O)NNC(=O)c1ccc(cc1)Cl)NNC(=O)c1ccc(cc1)Cl]",% inhibition T4 10',"DRC-2, concentration 80",-22%
same,% inhibition T4 40',"DRC-2, concentration 5",-13%
same,% inhibition T4 40',"DRC-2, concentration 20",-23%
same,% inhibition T4 40',"DRC-2, concentration 40",-17%
same,% inhibition T4 90',"DRC-2, concentration 5",-13%
same,% inhibition T4 90',"DRC-2, concentration 20",-22%
same,% inhibition T4 180',"DRC-2, concentration 5",-17%
same,% inhibition T4 180',"DRC-2, concentration 20",-23%
same,% inhibition T4 180',"DRC-2, concentration 40",-17%
